Results reported in ChEMBL document CHEMBL5046289, “Targeting the S2 Subsite Enables the Structure-Based Discovery of Novel Highly Selective Factor XIa Inhibitors” (J Med Chem, 2022).
The source made the active and inactive calls. The calls are words filed in the database; no cut-off is given here.

Legend:
Prothrombin [1] = target: T1, Prothrombin (Homo sapiens, UniProt P00734); assay: Inhibition of thrombin (unknown origin) assessed as chromogenic substrate using CS-10(38) as substrate at 1 mM incubated for 1 hr by spectrophotometer based microplate reader method
Coagulation factor XI [2] = target: T2, Coagulation factor XI (Homo sapiens, UniProt P03951); assay: Inhibition of coagulation factor XIa (unknown origin) assessed as chromogenic substrate hydrolysis using CS-21(66) as substrate incubated for 1 hr by spectrophotometer based microplate reader method
T2 sequence (P03951 19-387 limits assumed): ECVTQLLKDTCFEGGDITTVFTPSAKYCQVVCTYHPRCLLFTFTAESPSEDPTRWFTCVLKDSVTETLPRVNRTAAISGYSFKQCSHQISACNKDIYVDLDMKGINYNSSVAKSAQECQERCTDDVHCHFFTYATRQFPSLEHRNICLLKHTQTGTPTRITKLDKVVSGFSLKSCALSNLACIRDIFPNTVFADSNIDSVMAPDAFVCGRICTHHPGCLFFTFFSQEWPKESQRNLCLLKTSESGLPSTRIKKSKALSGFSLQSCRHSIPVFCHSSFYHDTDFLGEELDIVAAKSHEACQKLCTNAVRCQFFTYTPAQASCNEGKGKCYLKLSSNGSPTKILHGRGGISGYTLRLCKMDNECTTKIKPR
T2 sequence (P03951 388-625 limits assumed): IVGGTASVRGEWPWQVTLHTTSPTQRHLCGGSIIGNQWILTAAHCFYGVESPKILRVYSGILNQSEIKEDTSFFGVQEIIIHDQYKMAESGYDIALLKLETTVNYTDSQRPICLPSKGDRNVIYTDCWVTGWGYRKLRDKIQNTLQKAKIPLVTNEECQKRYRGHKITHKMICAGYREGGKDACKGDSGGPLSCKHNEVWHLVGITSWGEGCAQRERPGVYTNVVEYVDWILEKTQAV

Plasma kallikrein = Plasma kallikrein (Homo sapiens, UniProt P03952); assay: Inhibition of plasma kallikrein (unknown origin) assessed as chromogenic substrate hydrolysis using CS-31(02) as substrate incubated for 1 hr by spectrophotometer based microplate reader method
Sequence of Plasma kallikrein (P03952 20-390 limits assumed): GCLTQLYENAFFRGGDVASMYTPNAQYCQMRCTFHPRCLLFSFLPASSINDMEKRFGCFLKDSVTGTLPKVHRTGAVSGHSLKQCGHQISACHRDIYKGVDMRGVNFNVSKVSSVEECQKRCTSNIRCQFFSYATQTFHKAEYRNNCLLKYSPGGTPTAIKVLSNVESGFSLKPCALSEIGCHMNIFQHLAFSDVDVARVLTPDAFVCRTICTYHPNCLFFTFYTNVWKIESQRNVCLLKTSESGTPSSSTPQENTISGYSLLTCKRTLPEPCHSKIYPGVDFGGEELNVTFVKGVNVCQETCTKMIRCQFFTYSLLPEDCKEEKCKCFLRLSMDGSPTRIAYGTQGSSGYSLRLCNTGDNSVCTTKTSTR
Sequence of Plasma kallikrein (P03952 391-638 limits assumed): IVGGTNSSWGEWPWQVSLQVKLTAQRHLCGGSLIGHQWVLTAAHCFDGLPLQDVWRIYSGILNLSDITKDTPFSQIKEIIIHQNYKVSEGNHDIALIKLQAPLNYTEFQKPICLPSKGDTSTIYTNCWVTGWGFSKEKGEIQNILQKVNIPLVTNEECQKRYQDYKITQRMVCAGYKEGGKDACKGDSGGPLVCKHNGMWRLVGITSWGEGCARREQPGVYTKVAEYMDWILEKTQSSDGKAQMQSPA

Homo sapiens [3] = species on record: Homo sapiens; assay: Selectivity index, ratio of IC50 for plasma kallikrein (unknown origin) to IC50 for coagulation factor XIa (unknown origin)
Coagulation factor X = Coagulation factor X (Homo sapiens, UniProt P00742); assay: Inhibition of coagulation factor Xa (unknown origin) assessed as chromogenic substrate using CS-11(22) as substrate incubated for 1 hr by spectrophotometer based microplate reader method
Sequence of Coagulation factor X (P00742 41-179 limits assumed): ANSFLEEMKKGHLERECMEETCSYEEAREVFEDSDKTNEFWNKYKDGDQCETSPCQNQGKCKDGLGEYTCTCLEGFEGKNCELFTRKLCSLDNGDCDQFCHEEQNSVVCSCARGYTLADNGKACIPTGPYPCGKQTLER
Sequence of Coagulation factor X (P00742 235-488 limits assumed): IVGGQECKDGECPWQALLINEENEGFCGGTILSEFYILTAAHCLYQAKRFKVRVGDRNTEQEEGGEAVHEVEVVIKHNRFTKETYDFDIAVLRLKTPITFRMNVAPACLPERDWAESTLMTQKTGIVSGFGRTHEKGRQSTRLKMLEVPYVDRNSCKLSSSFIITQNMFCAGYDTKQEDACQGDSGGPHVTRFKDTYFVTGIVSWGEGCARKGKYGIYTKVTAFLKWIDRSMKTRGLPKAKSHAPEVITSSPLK

[4] = target: T3, Coagulation factor XII (Homo sapiens) (UniProt P00748); assay: Inhibition of coagulation factor XIIa (unknown origin) assessed as chromogenic substrate using TH5253 as substrate at 1 mM incubated for 1 hr by spectrophotometer based microplate reader method
T3 sequence (whole entry): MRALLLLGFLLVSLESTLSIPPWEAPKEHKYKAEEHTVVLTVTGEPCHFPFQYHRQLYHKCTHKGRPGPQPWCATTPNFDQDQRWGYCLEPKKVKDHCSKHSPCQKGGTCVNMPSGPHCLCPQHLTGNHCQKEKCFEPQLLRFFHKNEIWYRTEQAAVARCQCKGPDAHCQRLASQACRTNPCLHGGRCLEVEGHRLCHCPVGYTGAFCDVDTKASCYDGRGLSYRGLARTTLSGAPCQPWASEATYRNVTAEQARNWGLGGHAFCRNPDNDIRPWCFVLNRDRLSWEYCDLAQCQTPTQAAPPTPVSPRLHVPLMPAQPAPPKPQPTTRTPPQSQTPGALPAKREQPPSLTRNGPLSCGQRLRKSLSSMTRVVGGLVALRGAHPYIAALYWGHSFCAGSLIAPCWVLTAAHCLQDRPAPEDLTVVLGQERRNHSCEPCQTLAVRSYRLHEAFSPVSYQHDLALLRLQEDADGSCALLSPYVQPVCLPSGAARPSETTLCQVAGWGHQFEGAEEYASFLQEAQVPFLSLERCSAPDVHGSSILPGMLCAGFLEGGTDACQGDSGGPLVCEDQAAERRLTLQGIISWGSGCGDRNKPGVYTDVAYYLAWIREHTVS

[5] = target: Coagulation factor IX (Homo sapiens) (UniProt P00740); assay: Inhibition of coagulation factor IXa (unknown origin) assessed as chromogenic substrate using ADG299 as substrate at 1 mM incubated for 1 hr by spectrophotometer based microplate reader method
Sequence of Coagulation factor IX (Homo sapiens) (P00740 47-191 limits assumed): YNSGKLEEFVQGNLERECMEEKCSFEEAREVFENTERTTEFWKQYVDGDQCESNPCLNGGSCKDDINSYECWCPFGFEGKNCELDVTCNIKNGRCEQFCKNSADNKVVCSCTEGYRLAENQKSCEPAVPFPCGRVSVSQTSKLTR
Sequence of Coagulation factor IX (Homo sapiens) (P00740 227-461 limits assumed): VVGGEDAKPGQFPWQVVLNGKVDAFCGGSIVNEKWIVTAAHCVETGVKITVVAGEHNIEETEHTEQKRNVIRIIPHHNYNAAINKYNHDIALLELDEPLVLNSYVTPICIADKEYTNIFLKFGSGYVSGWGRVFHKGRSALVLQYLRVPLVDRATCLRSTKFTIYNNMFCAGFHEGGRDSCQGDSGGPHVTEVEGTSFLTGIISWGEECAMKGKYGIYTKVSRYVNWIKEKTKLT

[6] = target: T4, Coagulation factor VII (Homo sapiens) (UniProt P08709); assay: Inhibition of coagulation factor VIIa (unknown origin) assessed as chromogenic substrate using chromozyme t-PA as substrate at 1 mM incubated for 1 hr by spectrophotometer based microplate reader method
T4 sequence (whole entry): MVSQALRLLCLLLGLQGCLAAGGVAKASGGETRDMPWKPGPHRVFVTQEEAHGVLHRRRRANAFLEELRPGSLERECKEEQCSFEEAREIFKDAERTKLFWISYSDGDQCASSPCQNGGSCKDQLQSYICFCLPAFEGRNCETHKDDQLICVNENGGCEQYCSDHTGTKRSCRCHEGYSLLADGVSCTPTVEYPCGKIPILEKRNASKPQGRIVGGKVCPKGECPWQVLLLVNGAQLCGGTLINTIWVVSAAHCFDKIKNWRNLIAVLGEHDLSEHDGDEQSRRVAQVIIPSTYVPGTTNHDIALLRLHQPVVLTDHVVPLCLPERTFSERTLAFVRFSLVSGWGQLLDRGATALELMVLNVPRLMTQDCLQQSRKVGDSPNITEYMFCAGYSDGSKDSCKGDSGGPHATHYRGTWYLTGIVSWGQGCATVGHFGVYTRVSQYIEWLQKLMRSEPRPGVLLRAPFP

[7] = target: Serine protease 1 (Homo sapiens) (UniProt P07477); assay: Inhibition of trypsin (unknown origin) assessed as chromogenic substrate using CS-11(22) as substrate at 1 mM incubated for 1 hr by spectrophotometer based microplate reader method
Sequence of Serine protease 1 (Homo sapiens) (P07477 whole entry): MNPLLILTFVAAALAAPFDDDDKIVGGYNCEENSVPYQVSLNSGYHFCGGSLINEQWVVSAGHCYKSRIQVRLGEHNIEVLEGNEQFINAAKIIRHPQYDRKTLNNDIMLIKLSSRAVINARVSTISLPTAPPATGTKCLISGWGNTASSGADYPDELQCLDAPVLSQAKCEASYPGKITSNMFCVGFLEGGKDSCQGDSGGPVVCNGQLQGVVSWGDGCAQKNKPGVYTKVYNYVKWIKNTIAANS

Prothrombin [8] = target: T1, Prothrombin; assay: Inhibition of thrombin (unknown origin) assessed as chromogenic substrate using CS-10(38) as substrate incubated for 1 hr by spectrophotometer based microplate reader method
Homo sapiens [9] = species on record: Homo sapiens; assay: Selectivity index, ratio of IC50 for coagulation factor Xa (unknown origin) to IC50 for coagulation factor XIa (unknown origin)
Homo sapiens [10] = species on record: Homo sapiens; assay: Selectivity index, ratio of IC50 for coagulation factor XIIa (unknown origin) to IC50 for coagulation factor XIa (unknown origin)
Homo sapiens [11] = species on record: Homo sapiens; assay: Selectivity index, ratio of IC50 for coagulation factor IXa (unknown origin) to IC50 for coagulation factor XIa (unknown origin)
Homo sapiens [12] = species on record: Homo sapiens; assay: Selectivity index, ratio of IC50 for coagulation factor VIIa (unknown origin) to IC50 for coagulation factor XIa (unknown origin)
Homo sapiens [13] = species on record: Homo sapiens; assay: Selectivity index, ratio of IC50 for trypsin (unknown origin) to IC50 for coagulation factor XIa (unknown origin)
Homo sapiens [14] = species on record: Homo sapiens; assay: Selectivity index, ratio of IC50 for thrombin (unknown origin) to IC50 for coagulation factor XIa (unknown origin)
Coagulation factor XI [15] = target: T2, Coagulation factor XI; conditions: dose 50.0 nM, time 1.0 hrs

inhibition (Prothrombin [1]): inactive
IC50 (Coagulation factor XI [2]): 0.0185 µM
IC50 (Plasma kallikrein): 14 µM
Ratio IC50 (Homo sapiens [3]): 756
IC50 (Coagulation factor X): 980 µM
inhibition [4]: inactive
inhibition [5]: inactive
inhibition [6]: inactive
inhibition [7]: inactive
inhibition (Prothrombin [8]): inactive
Ratio IC50 (Homo sapiens [9]): > 5000
Ratio IC50 (Homo sapiens [10]): > 5000
Ratio IC50 (Homo sapiens [11]): > 5000
Ratio IC50 (Homo sapiens [12]): > 5000
Ratio IC50 (Homo sapiens [13]): > 5000
Ratio IC50 (Homo sapiens [14]): > 5000
inhibition (Coagulation factor XI [15]): 52.3%
SMILES: O=C(/C=C/c1cc(Cl)ccc1-n1cnnn1)N[C@@H](CC(=O)N1CCSCC1)C(=O)Nc1ccc(C(=O)O)cc1
